Here are results for 18 compounds from PubChem BioAssay AID296 (DTP/NCI, 2004).

The assay deals with MX-1 breast xenograft, nude mice, tumor weight T/C. Put plainly: NCI In Vivo Anticancer Drug Screen. Data for tumor model Human Mammary Carcinoma MX-1 Xenograft (intrarenal inoculation) in NU/NU Swiss (nude) mice. To be noted: endpoint: mean tumor weight change, higher = larger tumour. Summed up: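 Read-out: treated (T) over vehicle control (C) ratio of survival or tumor size. Dosing in animals carrying the transplanted tumor.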
In general terms: Xenograft models place foreign cells or tissue in a host animal.

Setting [1] is: dose: 12.0 mg/kg/injection, schedule: Q04DX003 (sc), vehicle: saline.
The mark [2] stands for this setting: dose: 75.0 mg/kg/injection, schedule: Q04DX003 (sc), vehicle: saline with Tween-80.
Where [3] appears, read: dose: 150.0 mg/kg/injection, schedule: Q04DX003 (sc), vehicle: saline with Tween-80.
[4] abbreviates: dose: 300.0 mg/kg/injection, schedule: Q04DX003 (sc), vehicle: saline with Tween-80.
Where [5] appears, read: dose: 600.0 mg/kg/injection, schedule: Q04DX003 (sc), vehicle: saline with Tween-80.
Where [6] appears, read: dose: 1200.0 mg/kg/injection, schedule: Q04DX003 (sc), vehicle: saline with Tween-80.
Setting [7] is: dose: 2400.0 mg/kg/injection, schedule: Q04DX003 (sc), vehicle: saline with Tween-80.
The mark [8] stands for this setting: dose: 50.0 mg/kg/injection, schedule: Q01DX010 (sc), vehicle: saline with Tween-80.
The mark [9] stands for this setting: dose: 100.0 mg/kg/injection, schedule: Q01DX010 (sc), vehicle: saline with Tween-80.
Where [10] appears, read: dose: 200.0 mg/kg/injection, schedule: Q01DX010 (sc), vehicle: saline with Tween-80.

Records with an inconclusive call do not appear.

For the compound `Cc1cc(N2C(=O)CCSC2=S)ccc1Cl`, the T/C is 169 % of control (dose: 150.0 mg/kg/injection, schedule: Q04DX003 (sc), vehicle: Klucel (hydroxypropylcellulose) (HPC)); 90 % of control (dose: 300.0 mg/kg/injection, schedule: Q04DX003 (sc), vehicle: Klucel (hydroxypropylcellulose) (HPC)); 63 % of control (dose: 600.0 mg/kg/injection, schedule: Q04DX003 (sc), vehicle: Klucel (hydroxypropylcellulose) (HPC)); 96 % of control (dose: 1200.0 mg/kg/injection, schedule: Q04DX003 (sc), vehicle: Klucel (hydroxypropylcellulose) (HPC)).
For the compound `[N-]=[N+]=CC(=O)CCC(N)C(=O)O` (stereo not drawn), the T/C is -45 % of control (dose: 0.1 mg/kg/injection, schedule: Q01DX010 (sc), vehicle: saline); 3 % of control (dose: 0.1 mg/kg/injection, schedule: Q02DX005 (sc), vehicle: saline); -64 % of control (dose: 0.2 mg/kg/injection, schedule: Q01DX010 (sc), vehicle: saline); -13 % of control (dose: 0.2 mg/kg/injection, schedule: Q02DX005 (sc), vehicle: saline); -80 % of control (dose: 0.4 mg/kg/injection, schedule: Q01DX010 (sc), vehicle: saline); -90 % of control (dose: 0.8 mg/kg/injection, schedule: Q02DX005 (sc), vehicle: saline). For the same compound, the T/C by setting is: (dose: 1.6 mg/kg/injection, schedule: Q02DX005 (sc), vehicle: saline) -92 % of control; (dose: 3.12 mg/kg/injection, schedule: Q04DX003 (sc), vehicle: DMSO) 11 % of control; (dose: 3.13 mg/kg/injection, schedule: Q04DX003 (sc), vehicle: saline) 1 % of control; (dose: 3.2 mg/kg/injection, schedule: Q02DX005 (sc), vehicle: saline) -100 % of control; (dose: 6.25 mg/kg/injection, schedule: Q04DX003 (sc), vehicle: DMSO) 15 % of control; (dose: 6.25 mg/kg/injection, schedule: Q04DX003 (sc), vehicle: saline) 1 % of control. For the same compound, the T/C by setting is: (dose: 12.5 mg/kg/injection, schedule: Q04DX003 (sc), vehicle: DMSO) 18 % of control; (dose: 12.5 mg/kg/injection, schedule: Q04DX003 (sc), vehicle: saline) 1 % of control; (dose: 25.0 mg/kg/injection, schedule: Q04DX003 (sc), vehicle: DMSO) 7 % of control; (dose: 25.0 mg/kg/injection, schedule: Q04DX003 (sc), vehicle: saline) -7 % of control.
`Cc1nc(N)nc(N)c1-c1ccc(Cl)c(Cl)c1`: the T/C by setting is: (dose: 0.47 mg/kg/injection, schedule: Q04DX003 (sc), vehicle: saline) 100 % of control; (dose: 0.94 mg/kg/injection, schedule: Q04DX003 (sc), vehicle: saline) 80 % of control; (dose: 3.0 mg/kg/injection, schedule: Q04DX003 (sc), vehicle: saline) 84 % of control; (dose: 3.75 mg/kg/injection, schedule: Q04DX003 (sc), vehicle: saline) 102 % of control; (dose: 6.0 mg/kg/injection, schedule: Q04DX003 (sc), vehicle: saline) 107 % of control; under setting [1], 87 % of control.
In the case of `Cn1c2nc(=O)n(-c3ccccc3)c(=O)c-2nc2c1CCCC2`, the T/C reads like this: (dose: 37.5 mg/kg/injection, schedule: Q04DX003 (sc), vehicle: saline with Tween-80) 104 % of control; under setting [2], 111 % of control; under setting [3], 87 % of control.
As to `CS(=O)(=O)Nc1ccc(C(=O)CCN2CCCCCC2)cc1`, the T/C reads like this: under setting [3], 101 % of control; under setting [4], 70 % of control.
As for `CCCCCC1c2cc(O)ccc2OC1N1CCOCC1` (stereo not drawn), the T/C was 72 % of control under setting [4], 71 % of control under setting [5], 90 % of control under setting [6] and 67 % of control under setting [7].
Turning to `CCCCCCCCCCCCCCCCS(=O)CC(O)COC(=O)c1ccc(C(=O)OCC(O)CS(=O)CCCCCCCCCCCCCCCC)cc1` (stereo not drawn), the T/C was 58 % of control (dose: 50.0 mg/kg/injection, schedule: Q01DX010 (sc), vehicle: saline + Tween-80 + alcohol); 115 % of control (dose: 100.0 mg/kg/injection, schedule: Q01DX010 (sc), vehicle: saline + Tween-80 + alcohol); 100 % of control (dose: 200.0 mg/kg/injection, schedule: Q01DX010 (sc), vehicle: saline + Tween-80 + alcohol); 82 % of control (dose: 400.0 mg/kg/injection, schedule: Q01DX010 (sc), vehicle: saline + Tween-80 + alcohol).
On to `CN(C)C(=O)c1cccc(COc2ccc(N3C(N)=NC(N)=NC3(C)C)cc2Cl)c1`, for which the T/C (dose: 6.25 mg/kg/injection, schedule: Q01DX010 (sc), vehicle: saline) is 104 % of control; the T/C (dose: 12.5 mg/kg/injection, schedule: Q01DX010 (sc), vehicle: saline) was 118 % of control; the T/C (dose: 25.0 mg/kg/injection, schedule: Q01DX010 (sc), vehicle: saline) was 49 % of control.
In the case of `OCC1OC(n2cnc3c2NC=NC[C@H]3O)CC1O` (stereo partly drawn), the T/C is, setting by setting: (dose: 1.0 mg/kg/injection, schedule: Q01DX010 (sc), vehicle: water) 124 % of control; (dose: 2.0 mg/kg/injection, schedule: Q01DX010 (sc), vehicle: water) 41 % of control; (dose: 8.0 mg/kg/injection, schedule: Q01DX010 (sc), vehicle: water) 28 % of control.
As to `C1OC1CO[C@@H]1CO[C@H]2[C@@H]1OC[C@H]2OCC1CO1` (stereo partly drawn), the T/C runs as follows: under setting [8], 45 % of control; under setting [9], 112 % of control; under setting [10], 24 % of control.
As to `C[n+]1c(-c2cccc3ccccc23)c2cc(N)ccc2c2ccccc21`, the T/C under setting [1] was 103 % of control and the T/C (dose: 48.0 mg/kg/injection, schedule: Q04DX003 (sc), vehicle: saline) was 92 % of control.
Turning to `C=C(C)[C@H]1CN[C@H](C(=O)O)[C@H]1CC(=O)O`, the T/C runs as follows: (dose: 20.0 mg/kg/injection, schedule: Q04DX003 (sc), vehicle: suspension in saline) 75 % of control; (dose: 40.0 mg/kg/injection, schedule: Q04DX003 (sc), vehicle: suspension in saline) 36 % of control.
For the compound `CN(C)N=Nc1ccccc1`, the T/C (dose: 100.0 mg/kg/injection, schedule: Q04DX003 (sc), vehicle: Klucel (hydroxypropylcellulose) (HPC)) was 36 % of control.
As for `O=C1NC(=O)/C(=C/C=C/c2ccccc2)S1`, the T/C was 111 % of control under setting [4], 98 % of control under setting [5], 84 % of control under setting [6] and 66 % of control under setting [7].
The corresponding values for `O=C(c1cccnc1)c1cc(-c2ccccn2)c(=O)n2ccccc12` are 66 % of control, 103 % of control, 81 % of control and 120 % of control.
As to `COc1c(O)c2c(c3cc(C(=O)N4CCc5c4c(O)c(OC)c4[nH]c(C(=O)N6CC7CC78C6=CC(=O)c6[nH]cc(C)c68)cc54)[nH]c13)CCN2C(N)=O` (stereo not drawn), the T/C was 37 % of control (dose: 2.5 mg/kg/injection, schedule: Q01DX010 (sc), vehicle: DMSO); 82 % of control (dose: 5.0 mg/kg/injection, schedule: Q01DX010 (sc), vehicle: DMSO); 1 % of control (dose: 10.0 mg/kg/injection, schedule: Q01DX010 (sc), vehicle: DMSO); 63 % of control (dose: 6.25 micrograms/kg/injection, schedule: Q01DX010 (sc), vehicle: DMSO); 53 % of control (dose: 12.5 micrograms/kg/injection, schedule: Q01DX010 (sc), vehicle: DMSO); 68 % of control (dose: 25.0 micrograms/kg/injection, schedule: Q01DX010 (sc), vehicle: DMSO). The T/C was 90 % of control (dose: 50.0 micrograms/kg/injection, schedule: Q01DX010 (sc), vehicle: DMSO); 85 % of control (dose: 100.0 micrograms/kg/injection, schedule: Q01DX010 (sc), vehicle: DMSO); 117 % of control (dose: 400.0 micrograms/kg/injection, schedule: Q01DX010 (sc), vehicle: DMSO).
Regarding `S=C=NCCc1ccccc1`, the T/C is, setting by setting: (dose: 25.0 mg/kg/injection, schedule: Q01DX010 (sc), vehicle: saline with Tween-80) 161 % of control; under setting [8], 156 % of control; under setting [9], 72 % of control; under setting [10], 113 % of control.
Regarding `Cn1c2ccccc2c2ccc3c(c21)C(=O)C=CC3=O`, the T/C reads like this: under setting [2], 62 % of control; under setting [3], 61 % of control; under setting [4], 117 % of control; under setting [5], 88 % of control.
